From patent US20250382298A1, “NITROGEN-CONTAINING COMPOUND AND USE THEREOF” (SUZHOU GENHOUSE BIO CO., LTD., priority 2022, published 2025) come the findings set out here.

Molecules are shown by their SMILES.

Data set [1] has as its system OVCAR3 cells. Description: Detection of cell proliferation activity by CCK8 method (OVCAR3). The format is cell-based. A digest of the protocol:
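OVCAR3 tumor cells in log-phase growth were trypsinized, counted and plated at 180 μL per well in 96-well plates, with PBS in the outer wells. The following day, compounds were added in 9 concentrations (1:5 dilutions starting at 10 μM final) in triplicate alongside DMSO controls. After 96 h, medium was swapped for 100 μL medium containing 10% CCK8. Plates were incubated 2 h at 37° C and read at 450 nm. Background-corrected inhibition relative to DMSO was fitted by non-linear regression in GraphPad Prism 7.0 to obtain IC50.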

A short description of data set [2]: Stability test in mouse liver microsomes. As to conditions: mouse liver microsomes 0.5 mg/mL, 1.0 μM substrate; for CLint scaled at 1 μM / half-life at 1 μM: CD-1, pH 7.4; for CLint scaled at 1 μM: read-out: MLM 0.5 CLint(liver); for half-life at 1 μM: read-out: MLM 0.5 T½. The format is in vitro ADME, CD-1 mice. Here is the method:
The phase I metabolic stability of the compounds in liver microsomes of CD-1 mice, Sprague-Dawley rats, beagle dogs, cynomolgus monkeys, and humans was assessed.
The animal and human liver microsomes used in the test system were purchased from Xenotech, Corning, or other qualified suppliers and stored in a freezer at a temperature below −60° C. prior to use.
The test samples and control compounds were separately incubated with animal and human liver microsomes at 37±1° C. for a period of incubation time up to 60 min. The samples were removed at the indicated time points, and the reaction was stopped with acetonitrile or another organic solvent containing an internal standard. After centrifugation, the resulting supernatants were assayed by the liquid chromatography-tandem mass spectrometry (LC-MS/MS) method.
73.21 g of dipotassium hydrogen phosphate trihydrate and 10.78 g of potassium dihydrogen phosphate were dissolved in 4000 mL of ultrapure water. The solution was adjusted to pH 7.40±0.10 with 10% phosphoric acid or 1 M potassium hydroxide to make a final concentration of 100 mM.
The test sample powder was prepared into a stock solution at a certain concentration with DMSO or another organic solvent, which was then further diluted with a suitable organic solvent.
Microsomes of each species were diluted into a 2× working solution with a 100 mM potassium phosphate buffer. The final concentration of the microsomes in the reaction system was 0.5 mg/mL.
An appropriate amount of nicotinamide adenine dinucleotide phosphate (NADP) and isocitric acid (ISO) powder was weighed out, dissolved in a magnesium chloride solution, and shaken and mixed well. An appropriate amount of isocitrate dehydrogenase (IDH) was added, and the mixture was mixed well by gently turning upside down. The final concentrations in the reaction system were: 1 mM NADP, 1 mM magnesium chloride, 6 mM ISO, and 1 unit/mL IDH.
The stop solution was prepared with acetonitrile or another organic solvent containing an internal standard (tolbutamide or another suitable compound). The prepared stop solution was stored in a freezer at 2-8° C.
Incubation was performed in a 96-well plate. Eight incubation plates were prepared and designated T0, T5, T15, T30, T45, T60, Blank60, and NCF60, respectively. The first 6 plates corresponded to reaction time points of […], respectively. No test sample or control compound was added to the Blank60 plate, and samples were taken after 60 min of incubation. In the NCF60 plate, incubation was performed for 60 min using the potassium phosphate buffer instead of the NADPH regeneration system solution. Three replicates were made for samples in all conditions.
The microsomes and the test sample or control compound were mixed, and then the incubation plates Blank60, T5, T15, T30, T45, and T60 except for TO and NCF60 were placed in a 37° C. water bath for pre-incubation for about 10 min. In the incubation plate T0, a stop solution was first added, followed by addition of the NADPH regeneration system working solution, and 98 μL of the potassium phosphate buffer was added to each sample well of the incubation plate NCF60 to initiate the reaction. After the pre-incubation of the incubation plates Blank60, T5, T15, T30, T45, and T60 was completed, 98 μL of the NADPH regeneration system working solution was added to each sample well to initiate the reaction. The reaction temperature was 37±1° C., the final volume of the reaction was 200 μL, and the reaction system included 0.5 mg/mL microsomes, 1.0 μM substrate, 1 mM NADP, 6 mM ISO, and 1 unit/ml IDH.
At 5 min, 15 min, […], 45 min, and 60 min, a cold stop solution containing an internal standard was added to the reaction plate to stop the reaction.
All the reaction plates after the reaction was stopped were shaken well and centrifuged at 3220×g at 4° C. for 20 min. After the supernatant was diluted at a certain ratio, LC-MS/MS analysis was performed. […]

The target in data set [3] is cytochrome oxidase P450 2D6 (Homo sapiens (Human), UniProt P10635). The data set is described as follows: Inhibition of cytochrome oxidase P450 2D6. The format is in vitro ADME. Conditions: liver microsomes, CYP2D6.
Sequence of cytochrome oxidase P450 2D6 (P10635 whole entry): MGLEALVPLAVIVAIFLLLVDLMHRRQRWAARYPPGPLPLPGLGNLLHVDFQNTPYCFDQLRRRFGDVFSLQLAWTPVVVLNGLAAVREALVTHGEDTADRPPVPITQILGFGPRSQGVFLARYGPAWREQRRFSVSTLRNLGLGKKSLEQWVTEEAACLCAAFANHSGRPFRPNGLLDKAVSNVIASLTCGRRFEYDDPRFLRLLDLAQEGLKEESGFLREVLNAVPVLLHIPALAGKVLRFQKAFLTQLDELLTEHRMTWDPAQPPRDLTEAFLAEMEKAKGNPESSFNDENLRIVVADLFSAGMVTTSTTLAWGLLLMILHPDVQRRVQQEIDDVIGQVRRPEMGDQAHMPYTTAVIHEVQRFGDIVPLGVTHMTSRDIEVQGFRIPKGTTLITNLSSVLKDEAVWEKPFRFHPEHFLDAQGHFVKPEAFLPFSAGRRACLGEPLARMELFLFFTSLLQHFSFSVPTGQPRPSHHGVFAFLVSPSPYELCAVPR
Data set [4] deals with cytochrome oxidase P450 3A4 (Homo sapiens (Human), UniProt P08684). Description: Inhibition of cytochrome oxidase P450 3A4 (Midazolam). The format is in vitro ADME. As to conditions: liver microsomes, CYP3A4, Midazolam.
Sequence of cytochrome oxidase P450 3A4 (P08684 whole entry): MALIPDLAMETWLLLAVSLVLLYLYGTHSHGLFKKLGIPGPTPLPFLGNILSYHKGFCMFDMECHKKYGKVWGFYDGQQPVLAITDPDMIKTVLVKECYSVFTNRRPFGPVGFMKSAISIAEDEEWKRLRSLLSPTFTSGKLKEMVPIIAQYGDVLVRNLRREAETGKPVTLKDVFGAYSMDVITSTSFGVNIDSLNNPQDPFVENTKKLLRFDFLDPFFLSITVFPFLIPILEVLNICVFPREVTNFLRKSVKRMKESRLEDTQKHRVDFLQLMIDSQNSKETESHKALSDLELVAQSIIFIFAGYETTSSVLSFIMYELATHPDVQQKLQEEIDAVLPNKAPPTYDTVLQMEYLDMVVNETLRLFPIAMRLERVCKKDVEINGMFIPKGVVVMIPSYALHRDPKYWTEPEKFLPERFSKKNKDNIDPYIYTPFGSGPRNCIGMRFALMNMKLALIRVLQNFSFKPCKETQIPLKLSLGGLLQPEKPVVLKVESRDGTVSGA
[5] abbreviates: Homo sapiens, OVCAR-3, CCK8, 96 h.

The IC50 is the concentration that inhibits the measured activity by half. A low value points to inhibition by little substance. For the compound `O=C(Nc1cc2cc[nH]c2c(N2CCC(F)(F)CC2)n1)c1ccc(NS(=O)(=O)CCO)cc1N1CCC2(CC1)CC2` [Compound 22], the half-inhibitory concentration (IC50) in data set [1] (setting [5]) is 3.4 nM.

Turning to `O=C(Nc1cn2c(F)cnc2c(N2CCC(F)(F)CC2)n1)c1ccc(NS(=O)(=O)CCO)cc1N1CCC2(CC1)CC2` [Compound 34], the IC50 was 10.6 nM in data set [1] (setting [5]), greater than 10000 nM in data set [3] and greater than 10000 nM in data set [4]. Moreover, the CLint scaled at 1 μM in data set [2] was 14.3 mL/min/kg. The half-life at 1 μM in data set [2] is 6.34 h.

In the case of `O=C(Nc1cc2ccsc2c(N2CCC(F)(F)CC2)n1)c1ccc(NS(=O)(=O)CCO)cc1N1CCC2(CC1)CC2` [Compound 15], in data set [2], the CLint scaled at 1 μM was 50.6 mL/min/kg and the half-life at 1 μM came to 1.81 h.

Take `CS(=O)(=O)Nc1ccc(C(=O)Nc2cn3ccnc3c(N3CCC(F)(F)CC3)n2)c(N2CC3CCC(C3)C2)c1` [Compound 19]: the IC50 in data set [1] (setting [5]) was 23.1 nM; in data set [3], greater than 10000 nM; in data set [4], greater than 10000 nM. Also, in data set [2], the CLint scaled at 1 μM came out at 52.3 mL/min/kg. Besides, the half-life at 1 μM in data set [2] is 1.75 h.

As to `Cc1cc(NC(=O)c2ccc(NS(=O)(=O)CCO)cc2N2CC3CCC(C3)C2)nc(N2CCC(F)(F)CC2)n1` [Compound 3], the IC50 in data set [1] (setting [5]) came out at 145 nM. This counts as sub-micromolar.

With `O=C(Nc1cc2c(c(N3CCC(F)(F)CC3)n1)COC2)c1ccc(NS(=O)(=O)CCO)cc1N1CCC2(CC1)CC2` [Compound 14], in data set [2], the CLint scaled at 1 μM amounted to 54.1 mL/min/kg and the half-life at 1 μM was 1.69 h.

`O=C(Nc1cn2ncnc2c(N2CCC(F)(F)CC2)n1)c1ccc(NS(=O)(=O)CCO)cc1N1CCC2(CC1)CC2` [Compound 23] registered an IC50 in data set [1] (setting [5]) of 5.7 nM. Besides, in data set [2], the CLint scaled at 1 μM was less than 38 mL/min/kg and the half-life at 1 μM is greater than 2.42 h.

On to `O=C(Nc1cc2ccccc2c(N2CCC(F)(F)CC2)n1)c1ccc(NS(=O)(=O)CCO)cc1N1CCC2(CC1)CC2` [Compound 6], for which the IC50 in data set [1] (setting [5]) was 57 nM; in data set [3], greater than 10000 nM; in data set [4] it was greater than 10000 nM. Also, in data set [2], the CLint scaled at 1 μM was less than 38 mL/min/kg. Also, in data set [2], the half-life at 1 μM is greater than 2.42 h.

Regarding `O=C(Nc1cc2cccnc2c(N2CCC(F)(F)CC2)n1)c1ccc(NS(=O)(=O)CCO)cc1N1CCC2(CC1)CC2` [Compound 21], the values for the IC50 in data set [1] (setting [5]), in data set [3] and in data set [4] were 3.4 nM, greater than 10000 nM and greater than 10000 nM, respectively. Moreover, in data set [2], the CLint scaled at 1 μM was less than 38 mL/min/kg. The half-life at 1 μM in data set [2] was greater than 2.42 h.

Consider `CS(=O)(=O)Nc1ccc(C(=O)Nc2cc3cc[nH]c3c(N3CCC(F)(F)CC3)n2)c(N2CCC3(CC2)CC3)c1` [Compound 47], for which the IC50 was 8 nM in data set [1] (setting [5]), 2240 nM in data set [3] and 240 nM in data set [4]. The CLint scaled at 1 μM in data set [2] was determined as 2.3 mL/min/kg. Also, in data set [2], the half-life at 1 μM was found to be 40.3 h.

For `CS(=O)(=O)Nc1ccc(C(=O)Nc2cn3ccnc3c(N3CCC(F)(F)CC3)n2)c(N2CCC3(CC2)CC3)c1` [Compound 10], in data set [2], the CLint scaled at 1 μM turned out to be 182 mL/min/kg and the half-life at 1 μM worked out at 0.502 h.

`O=C(Nc1cn2ccnc2c(N2CCC(F)(F)CC2)n1)c1ccc(NS(=O)(=O)CCO)cc1N1CCC2(CC1)CC2` [Compound 8]: the IC50 in data set [1] (setting [5]) was 7.2 nM; in data set [3], greater than 10000 nM; in data set [4], greater than 10000 nM. Besides, the CLint scaled at 1 μM in data set [2] was determined as 219 mL/min/kg. Besides, the half-life at 1 μM in data set [2] came to 0.418 h.

In data set [1] (CCK8, 96 h), `O=C(Nc1cn2cnnc2c(N2CCC(F)(F)CC2)n1)c1ccc(NS(=O)(=O)CCO)cc1N1CCC2(CC1)CC2` [Compound 24] came in with an IC50 of 12.3 nM. Moreover, in data set [2], the “MLM 0.5 CLint(liver)” value is recorded as 64.7 mL/min/kg and the “MLM 0.5 T½” value came out at 1.41 h.
